Measured values: patent publication US9682931B2, “Aryloyl(oxy or amino)pentafluorosulfanylbenzene compound, pharmaceutically acceptable salt thereof, and prodrugs thereof” (UBE INDUSTRIES, LTD., priority 2013, dated 2017)
Values after ≈ are worked out from the molar mass of the structure shown.

System: K562 human leukemia-derived cell lines
Assay: K562 human leukemia cell-proliferation inhibition test
Assay type: cell-based
Conditions: Homo sapiens, K562, 72 h, K562 cells, 72 hours, viable cells counted with trypan blue; read-out: IC50
Protocol: K562 Human Leukemia Cell-Proliferation Inhibition Test
A cell proliferation inhibition test using K562 cells was performed. The activity in the presence of a test substance was compared to the activity in the presence of green tea polyphenol (GTP). The materials used in the test are as follows.
Cells: K562 human leukemia-derived cell lines (DS Pharma Biomedical Co., Ltd.)
Control Substance: Green Tea Polyphenols, abbreviation: GTP (LKT Laboratories, Inc.)
Culture solution: 10% equine serum-supplemented RPMI1640 medium
A test substance and a control substance were used by dissolving each of them in DMSO. To a solution (0.99 mL) containing K562 cells in a cell concentration of 20,000 cells/mL, a test substance solution or a control substance solution (0.01 mL) was added and the cells were cultured. Seventy two hours later, a part of the cells was stained with trypan blue and viable cells were counted by a counting chamber.
In Table 2, “IC50” denotes the sample concentration inhibiting 50% of cell proliferation

Row | Compound | IC50 [µg/mL]
1 | C=CCOc1cccc(C(=O)Nc2ccc(S(F)(F)(F)(F)F)cc2)c1 [Compound 64, 4-(3-allyloxybenzoylamino)pentafluorosulfanylbenzene] | 1.1 (≈ 2.9 µM)
2 | O=C(Nc1ccc(S(F)(F)(F)(F)F)cc1)c1cccc(O)c1 [Compound 65, 4-(3-hydroxybenzoylamino)pentafluorosulfanylbenzene] | 0.92 (≈ 2.71 µM)
3 | O=C(Nc1ccc(S(F)(F)(F)(F)F)cc1)c1cccc(O)n1 [Compound 66, 4-(2-hydroxypyridin-6-yl)carbonylaminopentafluorosulfanylbenzene] | 2.3 (≈ 6.76 µM)
4 | O=C(Nc1ccc(S(F)(F)(F)(F)F)cc1)c1ncccc1O [Compound 68, 4-(3-hydroxypyridin-2-yl)carbonylaminopentafluorosulfanylbenzene] | 4.2 (≈ 12.3 µM)
5 | O=C(Nc1ccc(S(F)(F)(F)(F)F)cc1)c1cc(O)ncn1 [Compound 69, 4-(4-hydroxypyrimidin-6-yl)carbonylaminopentafluorosulfanylbenzene] | 2 (≈ 5.86 µM)
6 | O=C(Nc1ccc(S(F)(F)(F)(F)F)cc1)c1ncccn1 [Compound 70, 4-(pyrimidin-2-yl)carbonylaminopentafluorosulfanylbenzene] | 1.5 (≈ 4.61 µM)
7 | O=C(Nc1ccc(S(F)(F)(F)(F)F)cc1)c1ccccn1 [Compound 71, 4-(pyridin-2-yl)carbonylaminopentafluorosulfanylbenzene] | 4.4 (≈ 13.6 µM)
8 | O=C(Nc1ccc(S(F)(F)(F)(F)F)cc1)c1ccncc1 [Compound 72, 4-(pyridin-4-yl)carbonylaminopentafluorosulfanylbenzene] | 0.1 (≈ 0.308 µM)
9 | O=C(Nc1ccc(S(F)(F)(F)(F)F)cc1)c1ccncn1 [Compound 73, 4-(pyrimidin-4-yl)carbonylaminopentafluorosulfanylbenzene] | 2.3 (≈ 7.07 µM)
10 | O=C(Nc1ccc(S(F)(F)(F)(F)F)cc1)c1cc2cc(O)c(O)cc2oc1=O [Compound 74, 4-(6,7-dihydroxycoumarin-3-yl)carbonylaminopentafluorosulfanylbenzene] | 5 (≈ 11.8 µM)
11 | O=C(Nc1ccc(S(F)(F)(F)(F)F)cc1)c1ccncc1F [Compound 75, 4-(3-fluoropyridin-4-yl)carbonylaminopentafluorosulfanylbenzene] | 2 (≈ 5.84 µM)
12 | O=C(Nc1ccc(S(F)(F)(F)(F)F)cc1)c1ccnc(F)c1 [Compound 76, 4-(2-fluoropyridin-4-yl)carbonylaminopentafluorosulfanylbenzene] | 2 (≈ 5.84 µM)
13 | O=C(Nc1ccc(S(F)(F)(F)(F)F)cc1)c1ncc[nH]1 [Compound 78, 4-(imidazol-2-yl)carbonylaminopentafluorosulfanylbenzene] | 3.4 (≈ 10.9 µM)
14 | O=C(Nc1ccc(S(F)(F)(F)(F)F)cc1)c1cnccn1 [Compound 79, 4-(pyrazin-2-yl)carbonylaminopentafluorosulfanylbenzene] | 4.2 (≈ 12.9 µM)
15 | O=C(Nc1ccc(S(F)(F)(F)(F)F)cc1)n1cccc1 [Compound 80, 4-(pyrrol-1-yl)carbonylaminopentafluorosulfanylbenzene] | 4.9 (≈ 15.7 µM)
16 | O=C(Nc1ccc(S(F)(F)(F)(F)F)cc1)c1cocn1 [Compound 81, 4-(oxazol-4-yl)carbonylaminopentafluorosulfanylbenzene] | 2 (≈ 6.36 µM)
17 | O=C(Nc1ccc(S(F)(F)(F)(F)F)cc1)c1cnco1 [Compound 82, 4-(oxazol-5-yl)carbonylaminopentafluorosulfanylbenzene] | 3.6 (≈ 11.5 µM)
